Columns and labels:
Assay type in all cases: cell-based
bovine α1A receptor = molecular target: T1, bovine α1A receptor (Bos taurus, UniProt P18130); test: FLIPR Ca+2 influx assay, α1A; details: relative efficacy compared to standard full agonist norepinephrine; HEK 293, bovine α1A
T1 construct: expressed in transfected cells; host or cells: HEK 293
T1 sequence (P18130 1-466): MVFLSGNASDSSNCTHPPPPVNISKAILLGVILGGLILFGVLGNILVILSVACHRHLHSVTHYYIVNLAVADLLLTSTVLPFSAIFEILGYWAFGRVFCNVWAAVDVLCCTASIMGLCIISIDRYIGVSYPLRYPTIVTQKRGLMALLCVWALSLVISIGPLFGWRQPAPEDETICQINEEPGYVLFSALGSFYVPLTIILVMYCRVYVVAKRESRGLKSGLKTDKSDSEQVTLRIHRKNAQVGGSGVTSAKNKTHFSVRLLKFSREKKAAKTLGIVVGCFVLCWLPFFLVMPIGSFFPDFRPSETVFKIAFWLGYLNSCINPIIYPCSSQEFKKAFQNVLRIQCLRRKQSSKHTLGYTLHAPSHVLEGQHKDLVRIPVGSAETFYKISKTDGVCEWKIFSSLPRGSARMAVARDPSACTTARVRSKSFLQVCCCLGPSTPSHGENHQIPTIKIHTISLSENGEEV
Protocol: (§1) The compounds disclosed herein are agonists of alpha 2B/2C adrenergic receptors. […] This assay is adequate for monitoring the intracellular Ca^2+ mobilization from fluorescent reading to evaluate receptor agonists.
(§2) FLIPR Ca+2 Influx Assay: HEK 293 cells stably expressing the bovine α1A receptor, the rat α1B receptor, the human α2A receptor and the chimeric G protein Gqi5, the human α2C receptor and the chimeric G protein Gqi5 and the mouse α2B receptor and the Gα16 protein were plated in poly-D-lysine coated 384 well plates at 15,000-25,000 cells per well and grown overnight in DMEM supplemented with 10% fetal bovine serum. For FLIPR (fluorometric image plate reader) evaluation, cells were washed 2-4 times with HBSS/HEPES Buffer (1× Hanks Buffered Salt Solution, 20 mM HEPES<pH 7.4) prior to the addition of Fluo-4-AM (4 uM Fluo-4-AM, 0.04% pluronic acid in HBSS/HEPES Buffer), a calcium-sensitive dye. Cells were loaded with Dye for 40 minutes at 30° C., then washed 4-8 times with HBSS/HEPES Buffer to remove excess dye. Cells were preincubated at 37° C. for 3 minutes prior to placement into the FLIPR instrument. The reaction was carried out at 37° C. and was initiated by the addition of the appropriate dilutions of compounds. The transient calcium was captured and the peak height of the calcium curve determined and utilized for calculation of EC50 and efficacy using ActivityBase. Data is stored in the ActivityBase database under the unique identifier “Test Occasion”, which reflects the results of an assay run on a particular date and the individual responsible for the assay. Norepinephrine was the standard full agonist for evaluating alpha1 and alpha2 receptor activity.

human α2C receptor = molecular target: T2, human α2C receptor (Homo sapiens, UniProt P18825); test: FLIPR Ca+2 influx assay, α2C
T2 construct: expressed in transfected cells; host or cells: HEK 293
T2 sequence (P18825 1-462): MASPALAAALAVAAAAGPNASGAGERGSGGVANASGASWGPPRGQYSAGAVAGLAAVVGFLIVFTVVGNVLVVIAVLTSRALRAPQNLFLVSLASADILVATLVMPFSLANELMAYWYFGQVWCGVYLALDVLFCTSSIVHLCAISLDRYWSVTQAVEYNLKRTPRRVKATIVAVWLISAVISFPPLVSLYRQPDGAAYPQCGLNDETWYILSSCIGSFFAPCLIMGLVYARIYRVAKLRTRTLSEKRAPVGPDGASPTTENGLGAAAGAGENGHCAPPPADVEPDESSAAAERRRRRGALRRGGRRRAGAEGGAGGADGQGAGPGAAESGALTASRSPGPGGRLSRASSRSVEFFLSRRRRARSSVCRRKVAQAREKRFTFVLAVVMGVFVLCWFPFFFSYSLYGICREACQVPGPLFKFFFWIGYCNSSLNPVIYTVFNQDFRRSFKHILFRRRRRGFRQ
Protocol: as §1, §2

mouse α2B receptor = molecular target: T3, mouse α2B receptor (Mus musculus, UniProt P30545); test: FLIPR Ca+2 influx assay, α2B
T3 construct: expressed in transfected cells; host or cells: HEK 293
T3 sequence (P30545 1-453): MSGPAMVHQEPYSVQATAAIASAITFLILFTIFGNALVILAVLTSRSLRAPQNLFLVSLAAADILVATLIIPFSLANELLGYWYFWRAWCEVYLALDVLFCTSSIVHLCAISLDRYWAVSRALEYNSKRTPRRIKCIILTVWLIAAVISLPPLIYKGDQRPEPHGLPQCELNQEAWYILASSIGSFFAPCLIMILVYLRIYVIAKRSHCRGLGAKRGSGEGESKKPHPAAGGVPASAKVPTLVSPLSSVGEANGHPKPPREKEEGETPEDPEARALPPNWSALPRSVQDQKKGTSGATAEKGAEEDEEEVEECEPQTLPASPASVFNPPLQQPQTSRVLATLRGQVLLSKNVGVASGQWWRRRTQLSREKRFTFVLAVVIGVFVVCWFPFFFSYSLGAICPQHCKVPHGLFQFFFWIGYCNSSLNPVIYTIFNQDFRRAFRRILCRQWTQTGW
Protocol: as §1, §2

rat α1B receptor = molecular target: T4, rat α1B receptor (Rattus norvegicus, UniProt P15823); test: FLIPR Ca+2 influx assay, α1B
T4 construct: expressed in transfected cells; host or cells: HEK 293
T4 sequence (P15823 1-515): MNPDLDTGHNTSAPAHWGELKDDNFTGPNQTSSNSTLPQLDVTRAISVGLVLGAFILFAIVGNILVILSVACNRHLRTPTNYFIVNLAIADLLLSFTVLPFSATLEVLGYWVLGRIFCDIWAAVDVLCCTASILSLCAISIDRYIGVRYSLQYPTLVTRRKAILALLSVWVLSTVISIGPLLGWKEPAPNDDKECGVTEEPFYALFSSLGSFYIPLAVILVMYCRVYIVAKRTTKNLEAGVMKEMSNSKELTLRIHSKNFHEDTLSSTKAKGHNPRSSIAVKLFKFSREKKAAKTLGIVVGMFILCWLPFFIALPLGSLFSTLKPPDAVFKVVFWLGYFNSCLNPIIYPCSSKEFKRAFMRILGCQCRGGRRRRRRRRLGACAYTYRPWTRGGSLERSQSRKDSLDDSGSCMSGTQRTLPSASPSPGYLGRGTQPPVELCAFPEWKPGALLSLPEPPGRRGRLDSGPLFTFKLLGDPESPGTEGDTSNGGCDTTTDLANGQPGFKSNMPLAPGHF
Protocol: as §1, §2

human α2A receptor = molecular target: T5, human α2A receptor (Homo sapiens, UniProt P08913); test: FLIPR Ca+2 influx assay, α2A
T5 construct: expressed in transfected cells; host or cells: HEK 293
T5 sequence (P08913 1-465): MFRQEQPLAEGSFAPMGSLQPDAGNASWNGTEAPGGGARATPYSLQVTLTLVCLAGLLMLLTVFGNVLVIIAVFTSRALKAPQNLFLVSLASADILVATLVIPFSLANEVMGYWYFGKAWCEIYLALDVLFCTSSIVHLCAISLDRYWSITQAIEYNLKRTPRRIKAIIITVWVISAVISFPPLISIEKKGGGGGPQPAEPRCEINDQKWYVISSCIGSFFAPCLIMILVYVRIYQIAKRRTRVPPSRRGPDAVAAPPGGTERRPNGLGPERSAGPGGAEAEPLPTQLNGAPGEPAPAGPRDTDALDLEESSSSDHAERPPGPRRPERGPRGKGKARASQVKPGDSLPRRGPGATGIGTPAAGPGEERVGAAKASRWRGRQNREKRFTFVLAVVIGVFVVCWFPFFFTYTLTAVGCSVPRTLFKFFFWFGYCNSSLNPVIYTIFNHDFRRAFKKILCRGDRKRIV
Protocol: as §1, §2

- Relative efficacy FLIPR α1A (bovine α1A receptor): ND (0.05)
- EC50 (human α2C receptor; HEK 293 cells stably expressing human α2C receptor and chimeric G protein Gqi5): > 10 µM
- Relative efficacy FLIPR α2C (human α2C receptor; relative efficacy compared to standard full agonist norepinephrine, HEK 293, human α2C/Gqi5): 0
- EC50 (mouse α2B receptor; HEK 293 cells stably expressing mouse α2B receptor and Gα16 protein): 33 nM
- Relative efficacy FLIPR α2B (mouse α2B receptor; relative efficacy compared to standard full agonist norepinephrine, HEK 293, mouse α2B/Gα16): 0.95
- EC50 (rat α1B receptor; HEK 293 cells stably expressing rat α1B receptor): > 10 µM
- Relative efficacy FLIPR α1B (rat α1B receptor; relative efficacy compared to standard full agonist norepinephrine, HEK 293, rat α1B): 0
- EC50 (human α2A receptor; HEK 293 cells stably expressing human α2A receptor and chimeric G protein Gqi5): > 10 µM
- Relative efficacy FLIPR α2A (human α2A receptor; relative efficacy compared to standard full agonist norepinephrine, HEK 293, human α2A/Gqi5): 0
Compound: CCCN(Cc1ccccn1)C1CCc2cccc(O)c2C1 (stereo not drawn) [drawing 21]
